The record followed here is patent publication US20070185079A1, “Therapeutic agents I” (ASTRAZENECA AB, priority 2004, published 2007).

The target of one assay is T1, rat Melanin concentrating hormone receptor 1 (MCH1r) (Rattus norvegicus, UniProt P97639).
T1 construct: expressed in transfected cells
T1 sequence (P97639 whole entry): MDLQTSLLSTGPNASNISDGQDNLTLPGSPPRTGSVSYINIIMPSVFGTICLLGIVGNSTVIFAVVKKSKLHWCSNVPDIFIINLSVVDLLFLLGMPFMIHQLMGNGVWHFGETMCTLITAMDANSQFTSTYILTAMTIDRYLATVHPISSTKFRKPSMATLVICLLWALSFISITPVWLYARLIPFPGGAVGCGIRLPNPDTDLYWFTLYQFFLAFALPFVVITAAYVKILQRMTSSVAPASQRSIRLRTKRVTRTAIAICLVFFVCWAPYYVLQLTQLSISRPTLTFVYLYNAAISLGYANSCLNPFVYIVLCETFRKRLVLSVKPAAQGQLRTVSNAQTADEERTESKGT
The experiment in a line: MCH1 receptor radioligand binding, membranes from HEK293 cells, 125I-MCH. Conditions: HEK293 cell membranes stably expressing rat MCH1r, room temperature, 60 minutes. The source says:
(§1) Non-specific binding was subtracted from all values determined. Maximum binding was that determined in the absence of any competitor following subtraction of the value determined for non-specific binding. Binding of compounds at various concentrations was plotted according to the equation y=A+((B−A)/1+((C/x)ˆAD))) and IC50 estimated where • A is the bottom plateau of the curve i.e. the final minimum y value • B is the top of the plateau of the curve i.e. the final maximum y value • C is the x value at the middle of the curve. This represents the log EC50 value when A+B=100 • D is the slope factor. x is the original known x values. y is the original known y values.
Assays were also performed on membranes prepared from HEK293 cells stably expressing the rat Melanin concentrating hormone receptor 1 (MCH1r) (Lembo et al. Nature Cell Biol 1 267-271). Assays were performed in a 96-well plate format in a final reaction volume of 200 μl per well. […] Radioligand retained on the filters was quantified using a1450 Microbeta TRILUX (Wallac, Finland).
By IC50 is commonly meant the midpoint of a concentration-inhibition curve. For the compound `Cc1cc(N[C@H]2CC[C@H](NCc3cn(C)c4ccccc34)C2)nc2ccc(F)cc12` [Example 6, (1S,3S)-N-(6-fluoro-4-methylquinolin-2-yl)-N′-[(1-methyl-1H-indol-3-yl)methyl]cyclopentane-1,3-diamine], the IC50 turned out to be 79 nM.

The target of another assay is T2, human Melanin concentrating hormone receptor 1 (MCH1r) (Homo sapiens, UniProt Q99705).
T2 construct: expressed in transfected cells; host or cells: CHO-K1
T2 sequence (Q99705 whole entry): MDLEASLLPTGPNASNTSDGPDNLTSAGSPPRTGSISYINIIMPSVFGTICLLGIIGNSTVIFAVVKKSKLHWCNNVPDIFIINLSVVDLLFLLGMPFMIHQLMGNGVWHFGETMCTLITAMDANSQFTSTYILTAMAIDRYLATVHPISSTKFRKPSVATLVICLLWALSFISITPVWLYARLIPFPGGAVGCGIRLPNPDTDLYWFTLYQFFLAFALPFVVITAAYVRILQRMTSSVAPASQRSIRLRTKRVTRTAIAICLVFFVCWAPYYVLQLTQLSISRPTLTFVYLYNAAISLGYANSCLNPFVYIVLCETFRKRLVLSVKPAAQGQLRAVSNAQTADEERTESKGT
The assay is described as follows: MCH1 receptor radioligand binding, membranes from CHO-K1 cells, 125I-MCH. The settings on record: CHO-K1 cell membranes expressing human MCH1r, 30° C., 60 minutes, read-out: IC50 in human MCHr binding assay. On the procedure:
MCH1 Receptor Radioligand Binding.
Assays were performed on membranes prepared from CHO-K1 cells expressing the human Melanin concentrating hormone receptor 1 (MCH1r). Assays were performed in a 96-well plate format in a final reaction volume of 200 μl per well. Each well contained 6 μg of membrane proteins diluted in binding buffer (50 mM Tris, 3 mM MgCl2, 0.05% bovine serum albumin (BSA) and the radioligand ^125I-MCH (IM344 Amersham) was added to give 10 000 cpm (counts per minute) per well. Each well contained 2 μl of the appropriate concentration of competitive antagonist prepared in DMSO and left to stand at 30° C. for 60 minutes. Non-specific binding was determined as that remaining following incubation with 1 μM MCH (Melanin concentrating hormone, H-1482 Bachem). The reaction was terminated by transfer of the reaction to GF/A filters using a Micro96 Harvester (Skatron Instruments, Norway). Filters were washed with assay buffer. Radioligand retained on the filters was quantified using a1450 Microbeta TRILUX (Wallac , Finland).
as §1
Take `COc1cc(N[C@H]2CCC[C@H](NCc3ccsc3)C2)nc2ccc(F)cc12` [Example 5, (1S3S)-N-(6-fluoro-4-methoxyquinolin-2-yl)-N′-(3-thienylmethyl)cyclohexane-1,3-diamine]: the IC50 is 26 nM.

`COc1ccc2nc(N[C@H]3CC[C@H](NCc4ccc(-c5cccs5)s4)C3)cc(C)c2c1` [Example 16, (1S,3S)-N-(2,2′-bithien-5-ylmethyl)-N′-(6-methoxy-4-methylquinolin-2-yl)cyclopentane-1,3-diamine]: the IC50 amounted to 94 nM. On the same count and under the same terms, in the case of `COc1ccc2nc(N3CC4CCC(C3)C4N(C)Cc3ccsc3)cc(C)c2c1` (stereo not drawn) [Example 20, 3-(6-Methoxy-4-methylquinolin-2-yl)-N-methyl-N-(3-thienylmethyl)-3-azabicyclo [3.2.1]octan-8-amine] it was 560 nM; in that of `COc1ccc2c(C)cc(N[C@H]3C[C@@H]4C[C@H]3[C@@H](NCc3cn(C)c5ccccc35)C4)nc2c1` [Example 32, (1S,2S,4R,6S)-N-(7-methoxy-4-methylquinolin-2-yl)-N′-[(1-methyl-1H-indol-3-yl)methyl]bicyclo[2.2.1]heptane-2,6-diamine], 44 nM. Same read-out and setting: then `Cc1cc(N[C@H]2CC[C@H](NCc3cn(C)c4cnccc34)C2)nc2ccc(F)cc12` [Example 35, (1S,3S)-N-(6-Fluoro-4-methylquinolin-2-yl)-N′-[(1-methyl-1H-pyrrolo[2,3-c]pyridin-3-yl)methyl]cyclopentane-1,3-diamine], with 830 nM.
